{
  "source": "PubChem BioAssay AID2060483",
  "about": "(Molecular Pharmacology Branch, DTP, NCI, 2025)",
  "tested_on": "K24384-001-R-PDC complex spheroids, viability",
  "experiment": "Anticancer human tumor K24384-001-R-PDC patient-derived pancreatic adenocarcinoma cell line growth inhibition [GQUAD]",
  "details": "for IC50: curve of first compound; for viability, T/C: stronger effect = lower value",
  "in_short": "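Multi-cell-type spheroids of tumor cells with HUVEC and mesenchymal stem cells, treated with drug combinations. Concentrations descend in half-log steps from near clinical Cmax, or from 10 microM where Cmax is unknown; viability read-out.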",
  "key": {"[1]": {"details": "second compound 0.0316 µM, first compound 0.0316 µM"}, "[2]": {"details": "second compound 0.0316 µM, first compound 0.316 µM"}, "[3]": {"details": "second compound 0.1 µM, first compound 0.0316 µM"}, "[4]": {"details": "second compound 0.1 µM, first compound 0.316 µM"}, "[5]": {"details": "second compound 0.316 µM, first compound 0.0316 µM"}, "[6]": {"details": "second compound 0.316 µM, first compound 0.316 µM"}, "[7]": {"details": "second compound 1 µM, first compound 0.0316 µM"}, "[8]": {"details": "second compound 1 µM, first compound 0.316 µM"}, "[9]": {"details": "second compound 3.16 µM, first compound 0.0316 µM"}, "[10]": {"details": "second compound 3.16 µM, first compound 0.316 µM"}, "[11]": {"details": "second compound 10 µM, first compound 0.0316 µM"}, "[12]": {"details": "second compound 10 µM, first compound 0.316 µM"}},
  "data": [
    {"compound": "CC[C@@]1(O)C(=O)OCc2c1cc1n(c2=O)Cc2cc3c(CN(C)C)c(O)ccc3nc2-1", "note": "+ Cc1[nH]c2ccc(F)cc2c1-c1nc2c3cccnc3c3ncccc3c2[nH]1;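 note: spheroids exposed to compounds for seven days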", "values": [
      {"measurement": "IC50", "setting": "second compound 0.0316 µM", "result": "> 316", "unit": "nM"},
      {"measurement": "IC50", "setting": "second compound 0.1 µM", "result": 292, "unit": "nM"},
      {"measurement": "IC50", "setting": "second compound 0.316 µM", "result": 233, "unit": "nM"},
      {"measurement": "IC50", "setting": "second compound 1 µM", "result": 239, "unit": "nM"},
      {"measurement": "IC50", "setting": "second compound 3.16 µM", "result": 139, "unit": "nM"},
      {"measurement": "IC50", "setting": "second compound 10 µM", "result": 146, "unit": "nM"},
      {"measurement": "viability, T/C", "setting": "second compound 0.0316 µM, first compound 0.000999 µM", "result": 102, "unit": "%"},
      {"measurement": "viability, T/C", "setting": "second compound 0.0316 µM, first compound 0.00316 µM", "result": 110, "unit": "%"},
      {"measurement": "viability, T/C", "setting": "second compound 0.0316 µM, first compound 0.00999 µM", "result": 95.7, "unit": "%"},
      {"measurement": "viability, T/C", "setting": "[1]", "result": 80.9, "unit": "%"},
      {"measurement": "viability, T/C", "setting": "second compound 0.0316 µM, first compound 0.0999 µM", "result": 61.3, "unit": "%"},
      {"measurement": "viability, T/C", "setting": "[2]", "result": 51.2, "unit": "%"},
      {"measurement": "viability, T/C", "setting": "second compound 0.1 µM, first compound 0.000999 µM", "result": 83.5, "unit": "%"},
      {"measurement": "viability, T/C", "setting": "second compound 0.1 µM, first compound 0.00316 µM", "result": 113, "unit": "%"},
      {"measurement": "viability, T/C", "setting": "second compound 0.1 µM, first compound 0.00999 µM", "result": 82.4, "unit": "%"},
      {"measurement": "viability, T/C", "setting": "[3]", "result": 87.7, "unit": "%"},
      {"measurement": "viability, T/C", "setting": "second compound 0.1 µM, first compound 0.0999 µM", "result": 65.8, "unit": "%"},
      {"measurement": "viability, T/C", "setting": "[4]", "result": 49, "unit": "%"},
      {"measurement": "viability, T/C", "setting": "second compound 0.316 µM, first compound 0.000999 µM", "result": 85.4, "unit": "%"},
      {"measurement": "viability, T/C", "setting": "second compound 0.316 µM, first compound 0.00316 µM", "result": 92.2, "unit": "%"},
      {"measurement": "viability, T/C", "setting": "second compound 0.316 µM, first compound 0.00999 µM", "result": 83.1, "unit": "%"},
      {"measurement": "viability, T/C", "setting": "[5]", "result": 82.9, "unit": "%"},
      {"measurement": "viability, T/C", "setting": "second compound 0.316 µM, first compound 0.0999 µM", "result": 68.3, "unit": "%"},
      {"measurement": "viability, T/C", "setting": "[6]", "result": 43.4, "unit": "%"},
      {"measurement": "viability, T/C", "setting": "second compound 1 µM, first compound 0.000999 µM", "result": 95.7, "unit": "%"},
      {"measurement": "viability, T/C", "setting": "second compound 1 µM, first compound 0.00316 µM", "result": 92.8, "unit": "%"},
      {"measurement": "viability, T/C", "setting": "second compound 1 µM, first compound 0.00999 µM", "result": 98.8, "unit": "%"},
      {"measurement": "viability, T/C", "setting": "[7]", "result": 76.8, "unit": "%"},
      {"measurement": "viability, T/C", "setting": "second compound 1 µM, first compound 0.0999 µM", "result": 59, "unit": "%"},
      {"measurement": "viability, T/C", "setting": "[8]", "result": 46.7, "unit": "%"},
      {"measurement": "viability, T/C", "setting": "second compound 3.16 µM, first compound 0.000999 µM", "result": 73.8, "unit": "%"},
      {"measurement": "viability, T/C", "setting": "second compound 3.16 µM, first compound 0.00316 µM", "result": 74.7, "unit": "%"},
      {"measurement": "viability, T/C", "setting": "second compound 3.16 µM, first compound 0.00999 µM", "result": 79.1, "unit": "%"},
      {"measurement": "viability, T/C", "setting": "[9]", "result": 81.2, "unit": "%"},
      {"measurement": "viability, T/C", "setting": "second compound 3.16 µM, first compound 0.0999 µM", "result": 53.6, "unit": "%"},
      {"measurement": "viability, T/C", "setting": "[10]", "result": 41, "unit": "%"},
      {"measurement": "viability, T/C", "setting": "second compound 10 µM, first compound 0.000999 µM", "result": 78.1, "unit": "%"},
      {"measurement": "viability, T/C", "setting": "second compound 10 µM, first compound 0.00316 µM", "result": 55, "unit": "%"},
      {"measurement": "viability, T/C", "setting": "second compound 10 µM, first compound 0.00999 µM", "result": 66.4, "unit": "%"},
      {"measurement": "viability, T/C", "setting": "[11]", "result": 67.4, "unit": "%"},
      {"measurement": "viability, T/C", "setting": "second compound 10 µM, first compound 0.0999 µM", "result": 58.8, "unit": "%"},
      {"measurement": "viability, T/C", "setting": "[12]", "result": 31.3, "unit": "%"}
    ]},
    {"compound": "CC(C)(O)C1CCC(Nc2ccc3ncc(-c4cccc(C(F)(F)F)c4)n3n2)CC1", "note": "(centres undefined) + Cc1[nH]c2ccc(F)cc2c1-c1nc2c3cccnc3c3ncccc3c2[nH]1", "values": [
      {"measurement": "IC50", "setting": "second compound 0.0316 µM", "result": 1630, "unit": "nM"},
      {"measurement": "IC50", "setting": "second compound 0.1 µM", "result": 2030, "unit": "nM"},
      {"measurement": "IC50", "setting": "second compound 0.316 µM", "result": 1930, "unit": "nM"},
      {"measurement": "IC50", "setting": "second compound 1 µM", "result": 1710, "unit": "nM"},
      {"measurement": "IC50", "setting": "second compound 3.16 µM", "result": 447, "unit": "nM"},
      {"measurement": "IC50", "setting": "second compound 10 µM", "result": 548, "unit": "nM"},
      {"measurement": "viability, T/C", "setting": "[1]", "result": 95.6, "unit": "%"},
      {"measurement": "viability, T/C", "setting": "second compound 0.0316 µM, first compound 0.1 µM", "result": 104, "unit": "%"},
      {"measurement": "viability, T/C", "setting": "[2]", "result": 111, "unit": "%"},
      {"measurement": "viability, T/C", "setting": "second compound 0.0316 µM, first compound 1 µM", "result": 59.3, "unit": "%"},
      {"measurement": "viability, T/C", "setting": "second compound 0.0316 µM, first compound 3.16 µM", "result": 28.3, "unit": "%"},
      {"measurement": "viability, T/C", "setting": "second compound 0.0316 µM, first compound 10 µM", "result": 46.5, "unit": "%"},
      {"measurement": "viability, T/C", "setting": "[3]", "result": 75.3, "unit": "%"},
      {"measurement": "viability, T/C", "setting": "second compound 0.1 µM, first compound 0.1 µM", "result": 105, "unit": "%"},
      {"measurement": "viability, T/C", "setting": "[4]", "result": 90.4, "unit": "%"},
      {"measurement": "viability, T/C", "setting": "second compound 0.1 µM, first compound 1 µM", "result": 68.1, "unit": "%"},
      {"measurement": "viability, T/C", "setting": "second compound 0.1 µM, first compound 3.16 µM", "result": 39.8, "unit": "%"},
      {"measurement": "viability, T/C", "setting": "second compound 0.1 µM, first compound 10 µM", "result": 33.2, "unit": "%"},
      {"measurement": "viability, T/C", "setting": "[5]", "result": 103, "unit": "%"},
      {"measurement": "viability, T/C", "setting": "second compound 0.316 µM, first compound 0.1 µM", "result": 97.9, "unit": "%"},
      {"measurement": "viability, T/C", "setting": "[6]", "result": 108, "unit": "%"},
      {"measurement": "viability, T/C", "setting": "second compound 0.316 µM, first compound 1 µM", "result": 73.4, "unit": "%"},
      {"measurement": "viability, T/C", "setting": "second compound 0.316 µM, first compound 3.16 µM", "result": 28.5, "unit": "%"},
      {"measurement": "viability, T/C", "setting": "second compound 0.316 µM, first compound 10 µM", "result": 36.6, "unit": "%"},
      {"measurement": "viability, T/C", "setting": "[7]", "result": 76.7, "unit": "%"},
      {"measurement": "viability, T/C", "setting": "second compound 1 µM, first compound 0.1 µM", "result": 99, "unit": "%"},
      {"measurement": "viability, T/C", "setting": "[8]", "result": 106, "unit": "%"},
      {"measurement": "viability, T/C", "setting": "second compound 1 µM, first compound 1 µM", "result": 68.8, "unit": "%"},
      {"measurement": "viability, T/C", "setting": "second compound 1 µM, first compound 3.16 µM", "result": 26.2, "unit": "%"},
      {"measurement": "viability, T/C", "setting": "second compound 1 µM, first compound 10 µM", "result": 30.9, "unit": "%"},
      {"measurement": "viability, T/C", "setting": "[9]", "result": 64.6, "unit": "%"},
      {"measurement": "viability, T/C", "setting": "second compound 3.16 µM, first compound 0.1 µM", "result": 70.4, "unit": "%"},
      {"measurement": "viability, T/C", "setting": "[10]", "result": 56.2, "unit": "%"},
      {"measurement": "viability, T/C", "setting": "second compound 3.16 µM, first compound 1 µM", "result": 32.8, "unit": "%"},
      {"measurement": "viability, T/C", "setting": "second compound 3.16 µM, first compound 3.16 µM", "result": 15.4, "unit": "%"},
      {"measurement": "viability, T/C", "setting": "second compound 3.16 µM, first compound 10 µM", "result": 13.8, "unit": "%"},
      {"measurement": "viability, T/C", "setting": "[11]", "result": 70.1, "unit": "%"},
      {"measurement": "viability, T/C", "setting": "second compound 10 µM, first compound 0.1 µM", "result": 85.7, "unit": "%"},
      {"measurement": "viability, T/C", "setting": "[12]", "result": 57.3, "unit": "%"},
      {"measurement": "viability, T/C", "setting": "second compound 10 µM, first compound 1 µM", "result": 39.4, "unit": "%"},
      {"measurement": "viability, T/C", "setting": "second compound 10 µM, first compound 3.16 µM", "result": 12.7, "unit": "%"},
      {"measurement": "viability, T/C", "setting": "second compound 10 µM, first compound 10 µM", "result": 14, "unit": "%"}
    ]}
  ]
}
